From patent US11542266B1, “Substituted piperidines as BTK inhibitors” (HAISCO PHARMACEUTICALS PTE. LTD., priority 2019, dated 2023) come the findings set out here.

In series [1] the test system is Mino cells. The series is described as follows: Inhibition of cell proliferation, Mino cells (Cell Viability Assay, 72 h). It is filed as cell-based, human. The procedure:
(§1) SU-DHL-4, Mino, and SU-DHL-6 cells, in the culture medium of RPMI1640+10% FBS, were cultured in an incubator at 37° C. under 5% CO2. Cells were plated in a 96-well plate. Specifically, SU-DHL-4 cells were at 20000/well, Mino and SU-DHL-6 cells were at 5000/well, with 90 μL/well. 10 μL of the compounds at different concentrations were added to each well. There were 3 replicate wells for each concentration, and the last column, added with DMSO, was used as a vehicle control group. The cultures were continued for 72 hours at 37° C. under 5% CO2. After 72 hours, 100 μL of detection reagent (Cell Viability Assay, Promega, G7573) was added to each well, and the cultures were uniformly mixed for 2 minutes, and incubated at room temperature for 10 minutes. The fluorescence signal value was measured with a microplate reader (PHERAstar FSX). The IC50 value of the compound on cell proliferation inhibition was calculated using Origin 9.2 software, and the inhibition rate at the highest concentration of the compound (Max inhi. %) was calculated according to formula (1). Max inhi. %=(1-T72 administration/T72 vehicle)×100 Formula (1).

Series [2] in a line: Pharmacokinetic experiment in rats (i.g. vehicle 0.5% MC). Type of series: in vivo. The note with it: male SD rats, plasma; for AUC(0-t): i.g. 20 mg/kg, vehicle 0.5% MC. The procedure:
Objective: In this experiment, a single dose of each test compound was administered to SD rats intravenously and intragastrically, the concentrations of the test compound in plasma of rats were measured, and the pharmacokinetic characteristics and bioavailability of the test compound in rats were evaluated.
Experimental animals: Male SD rats, 200-250 g, 6-8 weeks old, 6 rats/test compound. The experimental animals were purchased from CHENGDU DOSSY EXPERIMENTAL ANIMALS CO., LTD.
Experimental method: On the day of the experiment, 6 SD rats were randomly grouped according to their body weight. The animals were fasted with water available for 12 to 14 hours one day before the administration of a test compound, and were fed 4 hours after the administration.
Sampling: Before and after the administration, 0.1 ml of blood was taken from the orbit of the rats under isoflurane anesthesia, and placed in an EDTAK2 centrifuge tube. Centrifugation was carried out at 5000 rpm at 4° C. for 10 min and the plasma was collected.
Time points for plasma collection in G1 group: 0, 5 m, 15 m, 30 m, 1 h, 2 h, 4 h, 6 h, 8 h, and 24 h.
Time points for plasma collection in G2 group: 0, 15 m, 30 m, 1 h, 2 h, 4 h, 6 h, 8 h, and 24 h.
Before analysis and detection, all samples were stored at −80° C. The samples were analyzed quantitatively by LC-MS/MS.

In series [3] the test system is SU-DHL-4 cells. The series is described as follows: Inhibition of cell proliferation, SU-DHL-4 cells (Cell Viability Assay, 72 h). It is filed as cell-based, human. The note with it: for SU-DHL-4 Max inhi. %: inhibition rate at the highest concentration of the compound. The procedure:
as §1

The mark [4] stands for this setting: Sprague-Dawley (SD), rat, po, read-out: AUC0-t.

The structures appear in SMILES notation. Counter-ions that a name gives are not always drawn. Like-named read-outs stand apart in the source and are kept apart here.

Consider `Nc1ncnc2c1c(-c1ccc(Oc3ccccc3)cc1)nn2[C@@H]1CCN(C2CCN(C3CN(c4ccc5c(c4)C(=O)N(C4CCC(=O)NC4=O)C5=O)C3)CC2)C[C@H]1F` (relative stereo) [Compound 20-1, trans-5-(3-(4-(4-amino-3-(4-phenoxyphenyl)-1H-pyrazolo[3,4-d]pyrimidin-1-yl)-3-fluoro-[1,4′-bipiperidin]-1′-yl)azetidin-1-yl)-2-(2,6-dioxopiperidin-3-yl)isoindoline-1,3-dione], for which half-maximal inhibition in series [1] (IC50) was put at 32 nM. In series [2], the AUC(0-t) came to 891 ± 164 ng·h/mL. For `Nc1ncnc2c1c(-c1ccc(Oc3ccccc3)cc1)nn2[C@@H]1CCCN(C2CCC(N3CC(Oc4ccc5c(c4)C(=O)N(C4CCC(=O)NC4=O)C5=O)C3)CC2)C1` (single isomer, unassigned) [Compound 34-a], the “SU-DHL-4 Max inhi. %” value in series [3] is reported as 94.4%. The same measure, in the same setting: with `Nc1ncnc2c1c(-c1ccc(Oc3ccccc3)cc1)nn2[C@@H]1CCCN(C2CCC(N3CC(Oc4ccc5c(c4)C(=O)N(C4CCC(=O)NC4=O)C5=O)C3)CC2)C1` (single isomer, unassigned) [Compound 34-b] the figure was 99.2%. Regarding `Nc1ncnc2c1c(-c1ccc(Oc3ccccc3)cc1)nn2C1CCN(C2CC3(CCN(c4ccc5c(c4)C(=O)N(C4CCC(=O)NC4=O)C5=O)CC3)C2)CC1` (stereo not shown) [Compound 1, 5-[2-[4-[4-amino-3-(4-phenoxyphenyl)pyrazolo[3,4-d]pyrimidin-1-yl]-1-piperidyl]-7-azaspiro[3.5]nonan-7-yl]-2-(2,6-dioxo-3-piperidyl)isoindoline-1,3-dione], the AUC(0-t) in series [2] (setting [4]) is 479 ± 197 ng·h/mL. Take `Nc1ncnc2c1c(-c1ccc(Oc3ccccc3)cc1)nn2C1CCN(c2cnc(N3CC4CN(c5ccc6c(c5)C(=O)N(C5CCC(=O)NC5=O)C6=O)CC4C3)nc2)CC1` (stereo not shown) [Compound 3, 5-[5-[5-[4-[4-amino-3-(4-phenoxyphenyl)pyrazolo[3,4-d]pyrimidin-1-yl]-1-piperidyl]pyrimidin-2-yl]-1,3,3a,4,6,6a-hexahydropyrrolo[3,4-c]pyrrol-2-yl]-2-(2,6-dioxo-3-piperidyl)isoindoline-1,3-dione tetratrifluoroacetate]: the AUC(0-t) in series [2] (setting [4]) came to 211 ± 46 ng·h/mL.

With `Nc1ncnc2c1c(-c1ccc(Oc3ccccc3)cc1)nn2C1CCN(c2cnc(N3CC4(CCN(c5ccc6c(c5)C(=O)N(C5CCC(=O)NC5=O)C6=O)CC4)C3)nc2)CC1` (stereo not shown) [Compound 4, 5-[2-[5-[4-[4-amino-3-(4-phenoxyphenyl)pyrazolo[3,4-d]pyrimidin-1-yl]-1-piperidyl]pyrimidin-2-yl]-2,7-diazaspiro[3.5]nonan-7-yl]-2-(2,6-dioxo-3-piperidyl)isoindoline-1,3-dione], the AUC(0-t) in series [2] (setting [4]) turned out to be 36 ± 10 ng·h/mL. On the same count and under the same terms, then `Nc1ncnc2c1c(-c1ccc(Oc3ccccc3)cc1)nn2C1CCN(c2cnc(N3CCC4(CC3)CN(c3ccc5c(c3)C(=O)N(C3CCC(=O)NC3=O)C5=O)C4)nc2)CC1` (stereo not shown) [Compound 5, 5-[7-[5-[4-[4-amino-3-(4-phenoxyphenyl)pyrazolo[3,4-d]pyrimidin-1-yl]-1-piperidyl]pyrimidin-2-yl]-2,7-diazaspiro[3.5]nonan-2-yl]-2-(2,6-dioxo-3-piperidyl)isoindoline-1,3-dione], with 81.7 ± 68 ng·h/mL; and `Nc1ncnc2c1c(-c1ccc(Oc3ccccc3)cc1)nn2C1CCN(Cc2cnc(N3CC4(CCN(c5ccc6c(c5)C(=O)N(C5CCC(=O)NC5=O)C6=O)CC4)C3)nc2)CC1` (stereo not shown) [Compound 7, 5-[2-[5-[[4-[4-amino-3-(4-phenoxyphenyl)pyrazolo[3,4-d]pyrimidin-1-yl]-1-piperidyl]methyl]pyrimidin-2-yl]-2,7-diazaspiro[3.5]nonan-7-yl]-2-(2,6-dioxo-3-piperidyl)isoindoline-1,3-dione tritrifluoroacetate], with 105 ± 54 ng·h/mL. As to `Nc1ncnc2c1c(-c1ccc(Oc3ccccc3)cc1)nn2C1CCN(C2CN(C3CCN(C4CCN(C5CN(c6ccc7c(c6)C(=O)N(C6CCC(=O)NC6=O)C7=O)C5)CC4)CC3)C2)CC1` (stereo not shown) [Compound 13, 5-[3-[4-[4-[3-[4-[4-amino-3-(4-phenoxyphenyl)pyrazolo[3,4-d]pyrimidin-1-yl]-1-piperidyl]azetidin-1-yl]-1-piperidyl]-1-piperidyl]azetidin-1-yl]-2-(2,6-dioxo-3-piperidyl)isoindoline-1,3-dione], the values for the half-maximal inhibitory concentration (IC50) in series [1] (Homo sapiens) and in series [3] (Homo sapiens) were 677 nM and 70 nM, respectively. Take `Nc1ncnc2c1c(-c1ccc(Oc3ccccc3)cc1)nn2C1CCN(C2CN(C3CN(c4cc5c(cc4F)C(=O)N(C4CCC(=O)NC4=O)C5=O)C3)C2)CC1` (stereo not shown) [Compound 21, 5-(3-(4-(4-amino-3-(4-phenoxyphenyl)-1H-pyrazolo[3,4-d]pyrimidin-1-yl)piperidin-1-yl)-[1,3′-biazetidin]-1′-yl)-2-(2,6-dioxopiperidin-3-yl)-6-fluoroisoindoline-1,3-dione]: the bioavailability – broadly, dose-corrected exposure relative to a reference, in per cent – in series [2] (Sprague-Dawley (SD), rat, po, i.g. 20 mg/kg (0.5% MC) vs i.v. 5 mg/kg) worked out at 12.4 ± 3.8%. The AUC(0-t) in series [2] (setting [4]) was determined as 3200 ± 973 ng·h/mL.

Regarding `Nc1ncnc2c1c(-c1ccc(Oc3ccccc3)cc1)nn2C1CCN(C2CCC(N3CC(Oc4ccc5c(c4)C(=O)N(C4CCC(=O)NC4=O)C5=O)C3)CC2)CC1` (stereo not shown) [Compound 36-a, 5-[1-[4-[4-[4-amino-3-(4-phenoxyphenyl)pyrazolo[3,4-d]pyrimidin-1-yl]-1-piperidyl]cyclohexyl]azetidin-3-yl]oxy-2-(2,6-dioxo-3-piperidyl)isoindoline-1,3-dione], the “SU-DHL-4 Max inhi. %” value in series [3] amounted to 99.6%. `Nc1ncnc2c1c(-c1ccc(Oc3ccccc3)cc1)nn2C1CCN(C2CCC(N3CC(Oc4ccc5c(c4)C(=O)N(C4CCC(=O)NC4=O)C5=O)C3)CC2)CC1` (stereo not shown) [Compound 36-b, 5-[1-[4-[4-[4-amino-3-(4-phenoxyphenyl)pyrazolo[3,4-d]pyrimidin-1-yl]-1-piperidyl]cyclohexyl]azetidin-3-yl]oxy-2-(2,6-dioxo-3-piperidyl)isoindoline-1,3-dione trifluoroacetate]: the “SU-DHL-4 Max inhi. %” value in series [3] (trifluoroacetate) turned out to be 99.8%. As to `Nc1ncnc2c1c(-c1ccc(Oc3ccccc3)cc1)nn2C1CCN(C2C[C@@H]3CN(C4CN(c5ccc6c(c5)C(=O)N(C5CCC(=O)NC5=O)C6=O)C4)C[C@@H]3C2)CC1` (stereo partly drawn) [Compound 59, 5-(3-((3aR,6aS)-5-(4-(4-amino-3-(4-phenoxyphenyl)-1H-pyrazolo[3,4-d]pyrimidin-1-yl)piperidin-1-yl)hexahydrocyclopenta[c]pyrrol-2(1H)-yl)azetidin-1-yl)-2-(2,6-dioxopiperidin-3-yl)isoindoline-1,3-dione], 501 nM corresponded to half-maximal inhibition in series [1] (Homo sapiens) (IC50). As for `Nc1ncnc2c1c(-c1ccc(Oc3ccccc3)cc1)nn2C1CCN(C2CN(C3CN(C4CN(c5ccc6c(c5)C(=O)N(C5CCC(=O)NC5=O)C6=O)C4)C3)C2)CC1` (stereo not shown) [Compound 60, 5-(3-(4-(4-amino-3-(4-phenoxyphenyl)-1H-pyrazolo[3,4-d]pyrimidin-1-yl)piperidin-1-yl)-[1,3′:1′,3″-terazetidin]-1H-yl)-2-(2,6-dioxopiperidin-3-yl)isoindoline-1,3-dione], the IC50 (commonly the concentration that inhibits the measured activity by half) in series [1] (Homo sapiens) worked out at 165 nM.

Turning to `Nc1ncnc2c1c(-c1ccc(Oc3ccccc3)cc1)nn2C1CCN(C2CN(C3C[C@@H]4CN(c5ccc6c(c5)C(=O)N(C5CCC(=O)NC5=O)C6=O)C[C@@H]4C3)C2)CC1` (stereo partly drawn) [Compound 61, 5-((3aR,6aS)-5-(3-(4-(4-amino-3-(4-phenoxyphenyl)-1H-pyrazolo[3,4-d]pyrimidin-1-yl)piperidin-1-yl)azetidin-1-yl)hexahydrocyclopenta[c]pyrrol-2(1H)-yl)-2-(2,6-dioxopiperidin-3-yl)isoindoline-1,3-dione], the half-inhibitory concentration (IC50) in series [1] (Homo sapiens) came out at 100 nM.

Regarding `Nc1ncnc2c1c(-c1ccc(Oc3ccccc3)cc1)nn2C1CCN(C2CN(C3CC4(CCN(c5ccc6c(c5)C(=O)N(C5CCC(=O)NC5=O)C6=O)CC4)C3)C2)CC1` (stereo not shown) [Compound 62, 5-(2-(3-(4-(4-amino-3-(4-phenoxyphenyl)-1H-pyrazolo[3,4-d]pyrimidin-1-yl)piperidin-1-yl)azetidin-1-yl)-7-azaspiro[3.5]nonan-7-yl)-2-(2,6-dioxopiperidin-3-yl)isoindoline-1,3-dione], it took 38 nM to reach half-maximal inhibition in series [1] (Homo sapiens) (IC50).
